Reference: US6444850B1, “Fungicidial compounds having a fluorovinyloxphyenyl moiety and process for the preparation thereof” (priority 1997, dated 2002)

How the values were obtained:
Erysiphae graminis = test: Fungicidal activity against barley powdery mildew (BPM) disease; format: in vivo; details: for C. V. (%) BPM: 50 ppm, control value, barley powdery mildew; for C. V. (%), Fungicidal activities against TLB at 10 ppm: Table 9 (Test Example 6)
Description: Erysiphae graminis was subcultured on a wheat plant in a laboratory. 15 g of barley seeds was sowed in a pot (diameter 6.5 cm) and cultured in a greenhouse for 7 days to obtain a barley plant having only a primary leaf. The barley plant was inoculated with spores by shaking thereover another plant infected by BPM. The inoculated barley plant was cultured in an incubator maintained at a temperature of 22 to 24° C. and a relative humidity of 50% for 7 days to induce BPM. L.A. on the leaf was measured to calculate an C.V.

Botrytis cinerae = test: Fungicidal activity against cucumber gray mold rot (CGM) disease; format: in vivo; details: 50 ppm, control value
Description: Botrytis cinerae, which was isolated from cucumber infected thereby, was inoculated on a PDA agar medium and cultured under a 12L/12D cycle at 25° C. for 15 days to form spore. The spores were scraped, filtered through a gauze and then suspended in potato dextrose liquid medium at a concentration of 1×10^6 spore/ml. The spore suspension was sprayed on a cucumber plant having one leaf. The cucumber plant was held in a humidified room at 20° C. for 3 days. L.A. on a leaf was measured to calculate an C.V.

Phytophthora infestans = format: in vivo; details: 50 ppm; control value, tomato late blight
Rhizoctonia solani AG-1 = test: Fungicidal activity against rice sheath blight (RSB) disease; details: 50 ppm, control value
Description: 50 ml of the resulting solution was sprayed on leaves of a host plant. The plant was kept at room temperature for 24 hours to let the solvent evaporate, and then, a pathogenic fungus was inoculated thereonto. The plant was held in a humidity chamber for 24 hours, transferred to an plant growth room kept at 20 to 27° C. and a relative humidity of 60 to 80% and kept to induce disease. Subsequently, the lesion area(L.A.) attacked by the pathogenic fungus was measured according to a method of Cho(Cho, K. Y., Search Report by Korea Research Institute of Chemical Technology (1989))”. This procedure was repeated twice for each test. 10% Acetone solution containing 250 ppm of Tween-20 was used as a control.
The fungicidal activity of the compound of the present invention is repressed by a control value (C.V.) calculated as; [formula]
Rhizoctonia solani AG-1 was cultured on a PDA medium(potato 200 g, dextrose 20 g, agar 20 g and distilled water 1 l) for 3 days and the agar disc (diameter 0.6 cm) was inoculated and cultured on sterilized wheat bran medium in a 1 l bottle at 26 to 28° C. for 7 days. A mycelial mass was ground using a homogenizer, inoculated uniformly on soil of a pot wherein a Nakdong rice plant having 2 or 3 leaves and an height of 5 cm grew, and kept in humidity polyvinyl chamber for 5 days to induce RSB. L.A. on a leaf sheath was measured to calculate an C.V.

[1] = tested on: Pyricularia oryzae Carvara KA301; format: in vivo; details: for C. V. (%) RCB: 50 ppm, control value, rice blast; for C. V. (%) Fungicidal Activities against RCB at 10 ppm / C. V. (%) Fungicidal Activities against RCB at 10 ppm (TABLE 6): sprayed on Nakdong rice plant, control value from lesion area
Puccinia recondita = test: Fungicidal activity against wheat leaf rust (WLR) disease; format: in vivo; details: for C. V. (%) WLR: 50 ppm, control value, wheat leaf rust; for C. V. (%), Fungicidal Activities against WLB at 10 ppm: Table 8 (Test Example 5)

Row | SMILES | C. V. (%) BPM (Erysiphae graminis) | C. V. (%) CGM (Botrytis cinerae) | C. V. (%) TLB (Phytophthora infestans) | C. V. (%) RSB (Rhizoctonia solani AG-1) | C. V. (%) RCB [1] | C. V. (%) WLR (Puccinia recondita) | C. V. (%), Fungicidal activities against TLB at 10 ppm (Erysiphae graminis) | C. V. (%) Fungicidal Activities against RCB at 10 ppm [1] | C. V. (%) Fungicidal Activities against RCB at 10 ppm (TABLE 6) [1] | C. V. (%), Fungicidal Activities against WLB at 10 ppm (Puccinia recondita)
1 | CCc1ccc(C(=C(F)Oc2cccc(OCc3ccccc3C(=COC)C(=O)NC)c2)C(F)(F)F)cc1 [Compound 59] | 0% | 0% | 33% | 33% | 12% | 0% | – | – | – | –
2 | CCOc1ccc(C(=C(F)Oc2cccc(OCc3ccccc3C(=NOC)C(=O)NC)c2)C(F)(F)F)cc1 [Compound 80] | 100% | 0% | 0% | 0% | 100% | 100% | 100% | 95% | 95% | 100%
3 | CON=C(C(=O)OC)c1ccccc1COc1cccc(OC(F)=C(c2cccc(F)c2)C(F)(F)F)c1 [Compound 94] | 100% | 0% | 40% | 60% | 41% | 100% | 99% | – | – | 95%
4 | CNC(=O)C(=NOC)c1ccccc1COc1cccc(OC(F)=C(c2ccc(F)cc2)C(F)(F)F)c1 [Compound 99] | 100% | 21% | 48% | 90% | 80% | 100% | 100% | 95% | 95% | 100%
5 | CNC(=O)C(=COC)c1ccccc1COc1cccc(OC(F)=Cc2ccc(OC)cc2)c1 [Compound 30] | 16% | 28% | 6% | 5% | 93% | 0% | – | – | – | –
6 | COC(=O)C(=CSC)c1ccccc1COc1cccc(OC(F)=Cc2ccc(C)c(C)c2)c1 [Compound 16] | 97% | 0% | 33% | 60% | 53% | 83% | – | – | – | –
7 | CO/C=C(/C(=O)OC)c1ccccc1COc1cccc(OC(F)=Cc2ccccc2)c1 [Compound 1, methyl (2E)-3-methoxy-2-{2′-{3″-(2′″-fluorostyryl)-2′″-oxy}phenoxymethyl}phenyl-2-propenoate] | 100% | 62% | 70% | 95% | 97% | 100% | 100% | – | – | 96%
8 | CNC(=O)/C(=N/OC)c1ccccc1COc1cccc(OC(F)=C(c2ccc(C)c(C)c2)C(F)(F)F)c1 [Compound 66] | 100% | 0% | 18% | 40% | 98% | 100% | 100% | 100% | 100% | 100%
9 | CCCCc1ccc(C(=C(F)Oc2cccc(OCc3ccccc3C(=COC)C(=O)OC)c2)C(F)(F)F)cc1 [Compound 62] | 98% | 28% | 3% | 35% | 0% | 93% | – | – | – | –
10 | CON=C(C(=O)OC)c1ccccc1COc1cccc(OC(F)=Cc2cccc(C)c2)c1 [Compound 8] | 97% | 51% | 92% | 92% | 100% | 98% | 93% | 90% | 90% | 90%
11 | COC=C(C(=O)OC)c1ccccc1COc1cccc(OC(F)=Cc2ccc(Oc3ccccc3)cc2)c1 [Compound 32] | 90% | 20% | 24% | 30% | 30% | 88% | – | – | – | –
